Test results taken from patent publication US20240141330A1, “METHODS AND COMPOSITIONS FOR MUTAGENESIS SCREENING IN MAMMALIAN CELLS” (THE BOARD OF REGENTS OF THE UNIVERSITY OF TEXAS SYSTEM, priority 2021, published 2024).
Like-named read-outs stand apart in the source and are kept apart here.

System: K562 cells harboring doxycycline-inducible BCR-ABL1 variants
Conditions: FIG. 7C
Source text: Values shown are averages±standard error of the mean (SEM) of 2 biological replicates.
For this example, the K562 CML cell line was used as it harbored the BCR-ABL1 fusion gene/protein and was highly sensitive to BCR-ABL1 inhibitors.
LentiMutate may create large and small indels because the HIV-1 RT is known to switch templates and have low processivity. […] As a comparison, also tested was the 35INS variant, a BCR-ABL variant detected in patient samples that truncates BCR-ABL at the end of the kinase domain, producing a kinase dead protein, due to the insertion and usage of a 35 bp sequence in an intron that acts as a novel splicing site.

Structure (SMILES): O=C(Nc1ccc(OC(F)(F)Cl)cc1)c1cnc(N2CC[C@@H](O)C2)c(-c2cc[nH]n2)c1 [asciminib]
- Resistance conferred by BCR-ABL1 variant (deletions in ABL1 (−SV11)): did not
- Resistance conferred by BCR-ABL1 variant (deletions in BCR (−SV8 and −NTCD)): conferred resistance
